Experiments:
5TGM1 myeloma cells = experiment: 5TGM1 myeloma cell proliferation; assay type: cell-based, mouse; settings: for 5TGM1 cell growth compared to controls: once a day, FIG. 2
Experimental: Blood. 93: 1697-1706 (1999). 5TGM1 cells were grown in Hyclone classical liquid media RPMI 1640 (Thermo Scientific Hyclone, Logan, Utah) supplemented with heat-inactivated fetal bovine serum (Thermo Scientific Hyclone, Logan, Utah) and 1% penicillin-streptomycin solution (GIBCO, Grand Island, N.Y.) at 37° C. in 5% CO2. Additionally, two bortezomib-resistant MM cell lines, RPMI 8226 and ARP1, were generated via a stepwise increase in bortezomib (velcade) concentration.
Initially, 5TGM1 myeloma cells were seeded in 24-well plates (10^5 cells/mL) using RPMI-1640, supplemented with 2% FBS, in the presence or absence of bortezomib (velcade), PTH, and/or {[TYR^34]bPTH-(7-34)}.

[1] = test system: 5TGM1/C57BL/KaLwRij mouse myeloma model; experiment: Overall survival of 5TGM1/C57BL/KaLwRij myeloma mice; assay type: in vivo
Experimental: Blood. 114 Abstract 2865 (2009). […] Control animals received injections of PBS.
In this regard, the anti-PTH compound, {[TYR^34]bPTH-(7-34)}, was also tested in the presence or absence of bortezomib and PTH to determine whether myeloma growth and/or bone formation were affected. Similar experiments were performed using carfilzomib as shown below.
C57BL/KaLwRij mice (n=5) were subcutaneously injected carfilzomib (1.5 mg/kg) twice a week. The anti-PTH compound (500 μg/kg) was also administered to the mice 3 days prior and 1 day prior to carfilzomib treatment, where noted. Tumor burden was monitored by measuring IgG2b serum concentration twice a week.

[2] = test system: 5TGM1/C57BL/KaLwRij mouse myeloma model; experiment: Serum IgG2b level in 5TGM1/C57BL/KaLwRij myeloma mice; settings: bortezomib 1 mg/kg, PTH 80 μg/kg; p=0.017, p=0.029, p=0.017 respectively; FIG. 7
Experimental: A preclinical myeloma model was employed to examine the effects of PTH and bortezomib (velcade) on proteasome activity with respect to bone remodeling and MM pathogenesis. As such, myelomatous C57BL/KaLwRij mice were injected with 5TGM1 multiple myeloma cells as described. […] Briefly, 5TGM1 inoculation cultures were harvested, centrifuged, washed twice in 50 mL phosphate-buffered saline (PBS), and resuspended at 5×10^6 cells per mL of PBS. Experimental mice were injected with 100 μl of inoculation culture via tail vein injection using a 27-gauge needle. Control animals received injections of PBS.
Each experimental group included 5 mice, and one week after 5TGM1 cell injection, bortezomib, PTH, and/or {[TYR^34]bPTH-(7-34)} were administered in various combinations. The following groups, each containing five mice, were analyzed: untreated controls; bortezomib-treated mice; PTH treated mice; PTH and bortezomib treated mice; and 5{[TYR^34]bPTH-(7-34)} and bortezomib treated mice.
In accord with the experimental procedure outline above, bortezomib (velcade), at a concentration of 1 mg/kg, was administered to the mice via intraperitoneal injection alone, or in combination with PTH or the anti-PTH compound, twice a week (FIG. 6). PTH was added in a similar fashion, once-daily, alone, or in combination with bortezomib, at a concentration of 80 μg/kg. […]

[3] = test system: bortezomib-resistant RPMI 8226 MM cell line; experiment: IC50 of bortezomib in bortezomib-resistant RPMI 8226 cells; assay type: cell-based; settings: RPMI8226 bortezomib-resistant cells
Experimental: 5TGM1 myeloma cells (Noboru et al., A multiresponse parathyroid hormone assay: an inhibitor has agonist properties in vivo. American Physiological Society. E589-95 (1983)) were initially derived from the myeloma cell line 5T33, which were obtained from C57BL/KaLwRij mice. See Dallas et al., Ibandronate Reduces Osteolytic Lesions but not Tumor Burden in a Murine Model of Myeloma Bone Disease. Blood. 93: 1697-1706 (1999). 5TGM1 cells were grown in Hyclone classical liquid media RPMI 1640 (Thermo Scientific Hyclone, Logan, Utah) supplemented with heat-inactivated fetal bovine serum (Thermo Scientific Hyclone, Logan, Utah) and 1% penicillin-streptomycin solution (GIBCO, Grand Island, N.Y.) at 37° C. in 5% CO2. Additionally, two bortezomib-resistant MM cell lines, RPMI 8226 and ARP1, were generated via a stepwise increase in bortezomib (velcade) concentration.

{[TYR^34]bPTH-(7-34)} (FMHNLGKHLSSMERVEWLRKKLQDVHNY; Parathyroid hormone; UniProt P01268 38-65, looked up, variant F34Y) [anti-PTH, analog of PTH, antagonist of PTH]
effect on 5TGM1 cell survival (5TGM1 myeloma cells; anti-PTH alone at 100 nM, 500 nM and 1 μM, p=0.1, FIG. 3): did not have an effect

CC(C)C[C@H](NC(=O)[C@H](CCc1ccccc1)NC(=O)CN1CCOCC1)C(=O)N[C@@H](Cc1ccccc1)C(=O)N[C@@H](CC(C)C)C(=O)[C@@]1(C)CO1 [carfilzomib]
survival compared to controls ([1]; carfilzomib 1.5 mg/kg subcutaneous twice a week, p=0.012, FIG. 8): increased survival

CC(C)C[C@H](NC(=O)[C@H](Cc1ccccc1)NC(=O)c1cnccn1)B(O)O [bortezomib]
serum IgG level compared to controls [2]: significant inhibition
5TGM1 cell proliferation compared to controls (5TGM1 myeloma cells; bortezomib alone at 5 nM or 10 nM, every other day, p=0.01 at 5 nM, p=0.001 at 10 nM, FIG. 1): concentration dependent reduction in 5TGM1 cell proliferation
increased survival versus control mice ([1]; bortezomib 1 mg/kg intraperitoneal twice a week): 40%
maximum survival ([1]; bortezomib 1 mg/kg intraperitoneal twice a week, control mice maximum five weeks): up to seven
survival compared to controls ([1]; bortezomib 1 mg/kg intraperitoneal twice a week, p=0.044, FIG. 6): prolonged survival
survival compared to mice treated with bortezomib and the anti-PTH compound ([1]; bortezomib 1 mg/kg, PTH 80 μg/kg, p=0.044 (bortezomib), p=0.047 (bortezomib and PTH)): significantly longer period of time
IC50 [3]: 250 nM

B1: parathyroid hormone (peptide, UniProt P01270 32-115, looked up)
Parathyroid hormone: SVSEIQLMHNLGKHLNSMERVEWLRKKLQDVHNFVALGAPLAPRDAGSQRPRKKEDNVLVESHEKSLGEADKADVNVLTKAKSQ
modifications: Parathyroid hormone
notes: 84 amino acid polypeptide secreted by the parathyroid glands
serum IgG level compared to controls [2]: significant inhibition
5TGM1 cell growth compared to controls (5TGM1 myeloma cells; PTH alone 10 nM, p=0.1): not a significant difference
5TGM1 cell growth compared to controls (5TGM1 myeloma cells; PTH alone 50 nM, p=0.001): statistically significant decrease in cell growth
5TGM1 cell growth compared to controls (5TGM1 myeloma cells; PTH alone 100 nM, p=0.001): statistically significant decrease in cell growth

Source: patent US20130109017A1, “MULTIPLE MYELOMA PROGNOSIS AND TREATMENT” (University of Utah Research Foundation, priority 2010, published 2013)
